Measurements: publication PMC12123366, “Effect of urea and squaramide IMPDH inhibitors on C. parvum: in vitro trial design impacts the assessment of drug efficacy” (International Journal for Parasitology: Drugs and Drug …, 2025)

Experiments:
[1] = CytoTox 96 Non-Radioactive Cytotoxicity Assay; format: cell-based, Human; settings: human; HCT-8 cells, 10 µM
Experimental: (§1) HCT-8 cell lines (Human ileocecal adenocarcinoma) were purchased from The European Collection of Authenticated Cell Cultures (ECACC) under catalogue number No 90032006) and maintained with regular subculturing in a growth medium consisting in a RPMI 1640 medium supplemented with 1 mM sodium pyruvate, 2 mM l-glutamine, 10 % (vol/vol) of heat-inactivated fetal calf serum, 100 U/mL of penicillin and 100 μg/mL of streptomycin. Cells were grown in an incubator at 37 °C with 5 % (vol/vol) CO2 until monolayers reached 80–90 % confluency. Cells were cultivated in 96-well format plate for molecular analysis and in Lab-Tek™ Chamber Slides for microscopic analysis. 50,000 cells were seeded and incubated during 24 h (until confluency) before infection.
(§2) The compounds (2 mg/mL in DMSO) were diluted to 500 μM and serially diluted in maintenance medium. The cytotoxicity of the compounds was assessed using the CytoTox 96® Non-Radioactive Cytotoxicity Assay (Promega, G1790) in accordance with the manufacturer's protocol.
(§3) An initial screening experiment was conducted on the full library to evaluate the cytotoxicity effects on HCT-8 cells. Nitrophenylurea 12 was identified as being cytotoxic so was not progressed further (See Supporting Information). In total, 21 candidates were assessed for their ability to inhibit C. parvum replication at a concentration of 10 μM. Each compound was added at the start of the infection of HCT-8 cells (T0) and remained in the culture for 48 h post infection (hpi). Parasitic quantification was then performed using a molecular method (qPCR). Of the 21 compounds tested, nine were effective inhibitors, reducing parasite proliferation by 80 % or more (Fig. 6). A clear trend emerged with all of the benzyl-substituted ureas 6–10 displaying poor inhibitory activity, regardless of the attached heteroaryl substituent. […] Two exceptions to this were imidazole-containing analogues 18 and 19. […] Among the squaramide series, the results were highly dependent on the nature of the substituent, ranging from high (e.g. ketone 29, furan 32), medium (e.g. 3-pyrazole 30) to low (e.g. 4-pyrazole 31) anti-cryptosporidial activity.

HCT-8 cells = assay: CytoTox 96 Non-Radioactive Cytotoxicity Assay; format: cell-based, Human; settings: initial screening
Experimental: as §1, §2, §3

Q: With `CC(C)(NC(=O)Nc1ccc(Cl)c([N+](=O)[O-])c1)c1cccc(-c2cccc([N+](=O)[O-])c2)c1` [Compound 12, 1-(4-chloro-3-nitrophenyl)-3-(2-(3′-nitro-[1,1′-biphenyl]-3-yl)propan-2-yl)urea] as the compound, how does the viability at 10 µM [1] read?
A: 58%

Q: And the “cytotoxicity (in words)” value (HCT-8 cells)?
A: cytotoxic
